In PMC7321169, “N-Alkylaminoferrocene-Based Prodrugs Targeting Mitochondria of Cancer Cells” (Molecules, 2020):

Columns and labels:
[1] = system: BL-2 cells; assay: Viability of suspension BL-2 cells (MTT); format: cell-based
Description: The suspension of BL-2 cells in the RPMI 1640 medium containing 5% FBS (for 24- and 48 h assays) or 10% FBS (for 96 h assays) 1% L-glutamine, and 1% penicillin/streptomycin was spread in the wells of a 96-well microtiter plate. Every plate contained 50,000 cells (with the exception of the 96h-experiment, for which 25,000 cells were used) per well per 100 μL. Stock solutions of prodrugs of different concentrations (1 μL, solvent DMSO) were added to the wells and incubated for 24–96 h. Four experiments were conducted for each concentration of the prodrug. Finally, 3-(4,5-dimethylthiazol-2-yl)-2,5-diphenyltetrazolium bromide (MTT; 20 μL of the solution prepared by dissolving MTT (5 mg) in PBS buffer (1 mL)) was added to each well, incubated for 3 h, treated with sodium dodecyl sulfate (SDS) solution (90 μL, 10% solution in 0.01 M aqueous HCl), and incubated overnight. Then the intensity of absorbance at 590 nm was measured (MTT is converted to blue dye (λmax = 590 nm) in live cells). The absorbance at 690 nm was taken as a baseline value.

[2] = system: A2780 cells; assay: Viability of adherent A2780 cells (MTT); format: cell-based, human
Description: (§1) Adherent A2780, DU-145 and NHDF cells were grown as mentioned before. Then, the cells were resuspended in the RPMI 1640 (DMEM for HDFa cell line) medium containing 5% FBS (for 24- and 48 h assays) or 10% FBS (for 96 h assays) 1% L-glutamine, and 1% penicillin/streptomycin. This suspension was spread in the wells of a 96-well microtiter plate. Every well in the plates contained 25,000 cells (exceptions: 12,500 cells for the 96h-assay and 10,000 cells for experiments with HDFa cell line) per well per 100 μL and was left at 37 °C in the chamber filled with CO2 (5%) overnight. Stock solutions of prodrugs of different concentrations (1 μL, solvent DMSO) were added to the wells and incubated for 24–96 h. Four experiments were conducted for each concentration of the prodrug. Finally, 3-(4,5-dimethylthiazol-2-yl)-2,5-diphenyltetrazolium bromide (MTT; 20 μL of the solution prepared by dissolving MTT (5 mg) in PBS buffer (1 mL)) was added to each well, incubated for 3 h, treated with sodium dodecyl sulfate (SDS) solution (90 μL, 10% solution in 0.01 M aqueous HCl), and incubated overnight. Then the intensity of absorbance at 590 nm was measured (MTT is converted to blue dye (λmax = 590 nm) in live cells). The absorbance at 690 nm was taken as a baseline value.

[3] = Generation of ROS in cell free settings (2′,7′-dichlorofluorescin oxidation in the presence of H2O2); details: H2O2 10 mM; for Initial rate (dF/dt)0 of DCFH oxidation in the presence of H2O2: compound 49.5 μM, DCFH 10 μM, GSH 5 mM, EDTA 10 mM, MOPS buffer, 37 °C; for Activity in DCFH oxidation assay relative to prodrug 5: more active than 5, 49.5 μM
Description: 2′,7′-Dichlorofluorescin diacetate (DCFH-DA, 4.9 mg) was dissolved in 100 µL DMF and mixed with 0.1 M NaOH (900 µL). This mixture was incubated on a shaker for 30 min at 25 °C in the dark to obtain 10 mM 2′,7′-dichlorofluorescin (DCFH) stock solution. Next, 3-(N-morpholino)propanesulfonic acid buffer (MOPS buffer 100 mM, pH: 7.4) containing N,N,N’,N’-ethylenediaminetetraacetic acid (EDTA, 10 mM), glutathione (GSH, 5 mM) and H2O2 (10 mM) was prepared. Finally, DCFH was diluted in this buffer to 10 µM as the final concentration. Monitoring of the fluorescence was started (λex: 501 nm, λem: 525 nm). […] DMF and FeSO4 in DMF were used as controls. The measurement was conducted for 300 min (Table S2, Figure 1A).

[4] = system: DU-145 cells; assay: Viability of adherent DU-145 cells (MTT); format: cell-based, human
Description: as §1

[5] = system: HDFa cells; assay: Viability of adherent HDFa cells (MTT); format: cell-based, human; details: 48 h incubation, normal cells
Description: as §1

[6] = Solubility of prodrugs in aqueous buffers (absorbance at 790 nm); format: physicochemical
Description: Prodrugs 5, 7 and 9 (known control) were dissolved in DMSO at concentrations of 15, 10, 5, 2, 1.5, 1, and 0.2 mM. These solutions (10 μL) were transferred to quartz cuvettes containing 990 μL of either Dulbecco's phosphate-buffered saline (DPBS) or Roswell Park Memorial Institute (RPMI) medium containing 20% of fetal bovine serum (FBS) to obtain solutions (or suspensions) with final concentrations of prodrugs-150, 100, 50, 20, 15, 10, and 2 μM. The absorbance at 790 nm of the resulting solutions/suspensions was measured and plotted as a function of the concentration of prodrugs.

[7] = system: Jurkat cells; assay: Viability and cell death of Jurkat cells (Annexin A5-FITC/PI flow cytometry); format: cell-based, human; details: for Mechanism of cell death of Jurkat cells: 48 h, Ax/PI staining; for IC50: 48 h incubation
Description: Jurkat cells were counted in MUSE Cell Analyzer using MUSE® Count &Viability Assay Kit (Merck-Millipore, Billerica, MA, USA) and adjusted to a density of 1.0 × 10^5/mL in RPMI 1640 medium (with 10% FCS and 1% glutamine). A total of 9000 cells per well per 90 μL were seeded into 96 well culture plates. The 50 mM prodrug stock solutions were diluted to 300, 100, 30, and 10 μM in cell culture medium and 10 μL of the dilutions was pipetted to the cells, receiving final test concentrations of 30, 10, 3, and 1 μM. Every concentration was tested in triplicates. Cells with corresponding amounts of DMSO served as negative controls. […] was incubated with 200 μL of freshly prepared staining solution, consisting of 1 μl Annexin A5-Fitc, 0.4 μL 1,1′,3,3,3′,3′-hexamethylindodicarbocyanine iodide (DiIC1(5)) (both from Thermo Fisher Scientific, Waltham, MA, USA), 66.6 ng propidiumiodide (PI) and 33 μM monobromobimane (MBB, both from Sigma-Aldrich, Taufkirchen, Germany) per 1 mL Ringer’s solution (Fresenius Kabi AG, Bad Homburg, Germany). Cells were incubated for 20 min at 4 °C and then analyzed in Gallios cytofluorometer™ (Beckman Coulter, Fullerton, CA, USA). Fitc and propidium iodide were excited at 488 nm; Fitc fluorescence was recorded on the FL1 sensor (525/38 nm band pass, BP) and propidium iodide fluorescence was detected on FL3 sensor (620/30 nm BP), DiIC1(5) fluorescence was excited at 638 nm and detected on FL6 sensor at 675/20 nm. Monobromobimane fluorescence was excited at 405 nm and detected on FL9 sensor at 430/40 nm. To eliminate any fluorescence bleed-through, electronic compensation was used. Data were analyzed employing Kaluza™ software Version 1.2 (Beckman Coulter, Fullerton, CA, USA) and processed in Microsoft Excel. Cells negative for Annexin A5- Fitc and propidium iodide were considered viable. IC50 values were determined by fitting the % values of Ax-PI- cells versus drug concentration with a sigmoidal curve using GraphPad Prism software. Reduced glutathione (an intracellular thiol) can be detected by monobromobimane, a dye that becomes fluorescent after non-enzymatic binding to thiols. For analysis of the amount of mitochondrial membrane potential or reduced glutathione, the mean fluorescence index (MFI) was determined from viable cells by gating on Ax-PI-events.

[8] = system: Jurkat cells; assay: Mitochondrial membrane potential of Jurkat cells (DiIC1(5)); format: cell-based, human; details: 48 h; 5 at nontoxic concentrations ≤ 10 μM; 12 at all tested concentrations
Description: Jurkat cells were counted in MUSE Cell Analyzer using MUSE® Count &Viability Assay Kit (Merck-Millipore, Billerica, MA, USA) and adjusted to a density of 1.0 × 10^5/mL in RPMI 1640 medium (with 10% FCS and 1% glutamine). A total of 9000 cells per well per 90 μL were seeded into 96 well culture plates. The 50 mM prodrug stock solutions were diluted to 300, 100, 30, and 10 μM in cell culture medium and 10 μL of the dilutions was pipetted to the cells, receiving final test concentrations of 30, 10, 3, and 1 μM. Every concentration was tested in triplicates. Cells with corresponding amounts of DMSO served as negative controls. […] Cells were incubated for 20 min at 4 °C and then analyzed in Gallios cytofluorometer™ (Beckman Coulter, Fullerton, CA, USA). Fitc and propidium iodide were excited at 488 nm; Fitc fluorescence was recorded on the FL1 sensor (525/38 nm band pass, BP) and propidium iodide fluorescence was detected on FL3 sensor (620/30 nm BP), DiIC1(5) fluorescence was excited at 638 nm and detected on FL6 sensor at 675/20 nm. Monobromobimane fluorescence was excited at 405 nm and detected on FL9 sensor at 430/40 nm. To eliminate any fluorescence bleed-through, electronic compensation was used. Data were analyzed employing Kaluza™ software Version 1.2 (Beckman Coulter, Fullerton, CA, USA) and processed in Microsoft Excel. […]

Compound	IC50 ([1]; BL2, 48 h incubation) [µM]	Initial rate (dF/dt)0 of DCFH oxidation in the presence of H2O2 [3] [a.u. × min^−1]	Activity in DCFH oxidation assay relative to prodrug 5 [3] [fold]	IC50 ([4]; 24 h incubation) [µM]	IC50 ([4]; 48 h incubation) [µM]	IC50 ([4]; 96 h incubation) [µM]	IC50 ([1]; 24 h incubation) [µM]	IC50 ([1]; 48 h incubation) [µM]	IC50 ([1]; 96 h incubation) [µM]	IC50 ([2]; 24 h incubation) [µM]	IC50 ([2]; 48 h incubation) [µM]	IC50 ([2]; 96 h incubation) [µM]	Mechanism of cell death of Jurkat cells [7]	IC50 [7] [µM]	other results
C#Cc1ccc(-c2c3ccc(=[N+](C)C)cc-3oc3cc(N(C)C)ccc23)c(C(=O)[O-])c1 [control 13]	35 ± 6	–	–	–	–	–	–	–	–	–	–	–	–	–	IC50 ([2]; Homo sapiens, A2780, 48 h incubation): > 50 µM
O=S(=O)([O-])[O-].[Fe+2] [FeSO4]	–	22.3	2.9	–	–	–	–	–	–	–	–	–	–	–	–
CC1(C)OB(c2ccc(COC(=O)N(Cc3cccc(CN4CCCCC4)c3)[c-]3cccc3)cc2)OC1(C)C.[Fe+2].c1cc[cH-]c1 [prodrug 8]	–	17.1	2.2	–	–	–	–	–	–	–	–	–	–	–	–
COC(=O)CCCCCn1cc(CN(C(=O)OCc2ccc(B3OC(C)(C)C(C)(C)O3)cc2)[c-]2cccc2)nn1.[Fe+2].c1cc[cH-]c1 [prodrug 9]	–	–	–	> 50	47 ± 2	35 ± 3	37 ± 2	35 ± 2	33 ± 2	42 ± 3	32 ± 3	30 ± 5	mostly via necrosis	30 ± 4	IC50 [5]: > 50 µM; Solubility in DPBS ([6]; DPBS containing DMSO (1%, v/v)): 90 ± 10 µM; Solubility in FBS ([6]; RPMI medium containing 20% FBS and DMSO (1%, v/v)): 114 ± 11 µM
[Fe+2].c1cc[cH-]c1.c1cc[cH-]c1 [control 11, ferrocene]	–	–	–	> 50	> 50	> 50	> 50	> 50	> 50	> 50	> 50	> 50	–	> 50	–
CCCC[P+](c1ccccc1)(c1ccccc1)c1ccccc1 [control 12]	0.5 ± 0.2	–	–	–	–	–	–	–	–	–	–	–	mostly via necrosis	–	IC50 ([1]; BL2, 24 h incubation): 2 ± 1 µM; IC50 ([1]; BL2, 96 h incubation): 0.3 ± 0.1 µM; IC50 ([5]; Homo sapiens, HDFa): < 1 µM; Effect on mitochondrial potential of Jurkat cells [8]: reduces the mitochondrial potential
